Results taken from PMC12299168 (Pharmaceutics, 2025).
Like-named read-outs stand apart in the source and are kept apart here.

How the values were obtained:
[1] = test system: flare and wheal suppression; conditions: children aged 6–11 years; cited from earlier work
[2] = Hydrolysis of prodrugs in rat plasma; type: in vitro ADME; conditions: 37 °C, during 6 h
Procedure: First, 100 μL of stock solution was added to 3.9 mL of heparinized rat plasma (n = 3). The samples were incubated at 37 °C in a shaking chamber (100 rpm). At 0, 1, 2, 4, 6 and 24 h, the aliquot (100 μL) was collected, and then immediately diluted 10-fold with a solvent composed of Acetonitrile:DW = 90:10 (v/v) to precipitate the protein. An equal volume of fresh rat plasma was replenished after each sampling. The samples were centrifuged at 5000 rpm for 10 min and the supernatants were filtered through a double 0.45 μm PTFE syringe filter. The filtrates were analyzed for their prodrug and LCZ content by HPLC to determine the conversion of the prodrug to LCZ.
(§1) Esterase, plasma hydrolysis and chemical stability studies were performed using the HPLC method. The HPLC equipment used was Infinity 1260 (Agilent, CA) fitted with a quaternary pump, an autosampler, a UV detector set at a wavelength of 230 nm and a column compartment maintained at 20 °C. The sample was eluted from a Fortis C18 (150 × 4.6 mm, 5 μm particle size) (Fortis, Neston, UK) analytical column using Acetonitrile:distilled water:sulfuric acid (90:9.6:0.4, v/v). The mobile phase was pumped isocratically at a flow rate of 1 mL/min with a 20 μL injection volume.

[3] = test system: porcine liver esterase (PLE); test: Hydrolysis of prodrug in porcine liver esterase (PLE); type: in vitro ADME; conditions: for first-order rate constant (kobs): during 6 h; for half-life at 0.25 mg/mL (LCZ 2HCl Eq.): pig, porcine liver esterase (PLE) solution, 10% DMSO, 37 °C, read-out: T1/2 (time required for 50% degradation of prodrug) (converted)
Procedure: The ester bond cleavage assay was adapted from reference, with minor modifications, and carried out using PLE to evaluate the hydrolytic ratio (n = 3). […] At 0, 1, 2, 4, 6 and 24 h, the aliquot (100 μL) was collected using a 28 G syringe, and then immediately diluted 10-fold with a solvent composed of Acetonitrile:DW = 90:10 (v/v) to stop enzymatic action. The elution was replenished with an equal concentration and volume of fresh esterase solution. The diluted samples were filtered through a double 0.45 μm PTFE syringe filter. The filtrates were analyzed for their prodrug and LCZ content by HPLC to determine the conversion of the prodrug to LCZ.
as §1

first-order rate constant (kobs) ([3]; PLE 0.2 units/mL) [h⁻¹]	first-order rate constant (kobs) ([3]; PLE 0.5 units/mL) [h⁻¹]	first-order rate constant (kobs) ([3]; PLE 2.0 units/mL) [h⁻¹]	half-life at 0.25 mg/mL (LCZ 2HCl Eq.) ([3]; PLE 0.2 unit/mL) [min]	half-life at 0.25 mg/mL (LCZ 2HCl Eq.) ([3]; PLE 0.5 unit/mL) [min]	half-life at 0.25 mg/mL (LCZ 2HCl Eq.) ([3]; PLE 2.0 unit/mL) [min]	Compound	EC50 for flare suppression [1] [ng/mL]	EC50 for wheal suppression [1] [ng/mL]	first-order rate constant (kobs) [2] [h⁻¹]
–	–	–	–	–	–	O=C(O)COCCN1CCN([C@H](c2ccccc2)c2ccc(Cl)cc2)CC1 [LCZ, Levocetirizine]	1.4 ± 0.1	16.1 ± 2.2	–
0.127	0.165	0.498	300	240	~120	CCCCCCCCCCCCOC(=O)COCCN1CCN([C@@H](c2ccccc2)c2ccc(Cl)cc2)CC1 [LCZ-L, Levocetirizine laurate]	–	–	0.157
0.201	0.253	0.580	240	180	~60	CCCCCCCCCCOC(=O)COCCN1CCN([C@@H](c2ccccc2)c2ccc(Cl)cc2)CC1 [LCZ-D, Levocetirizine decanoate]	–	–	0.229
